Earlier results, collected in patent US12357619B2, “Noradrenergic and specific serotonergic anxiolytic and antidepressant, method for the production and use thereof” (ALLA CHEM, LLC, priority 2020, dated 2025).

Molecular target: T1, Serotonin 5-HT2C (Homo sapiens, UniProt P28335)
T1 sequence (P28335 33-458): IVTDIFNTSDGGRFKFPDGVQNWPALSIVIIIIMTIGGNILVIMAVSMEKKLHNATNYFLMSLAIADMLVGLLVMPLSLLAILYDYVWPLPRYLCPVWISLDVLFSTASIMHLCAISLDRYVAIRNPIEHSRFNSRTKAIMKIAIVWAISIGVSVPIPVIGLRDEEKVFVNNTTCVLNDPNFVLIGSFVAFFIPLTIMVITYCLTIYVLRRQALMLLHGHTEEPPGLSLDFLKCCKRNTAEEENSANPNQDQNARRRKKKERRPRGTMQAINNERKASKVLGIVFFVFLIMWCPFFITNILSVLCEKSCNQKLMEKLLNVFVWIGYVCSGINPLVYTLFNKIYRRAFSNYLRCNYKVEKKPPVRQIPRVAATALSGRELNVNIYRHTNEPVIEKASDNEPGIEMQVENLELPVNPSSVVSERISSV
Conditions: from en.wikipedia.org/wiki/Mirtazapine; cited from earlier work

CN1CCN2c3ncccc3Cc3ccccc3C2C1 (stereo not shown) [Mirtazapine]
Ki: 0.0089 to 0.039 µM
